Literature values in patent US20140127291A1, “EXTENDED RELEASE ACETAMINOPHEN LIQUID PHARMACEUTICAL COMPOSITIONS” (MAYNE PHARMA INTERNATIONAL PTY LTD, priority 2011, published 2014).

Key:
[1] = in vivo

SMILES: CC(=O)Nc1ccc(O)cc1 [acetaminophen]
- saturation concentration in water: about 14 mg/ml
- half life [1]: 1 to 4 h
